Measured values reported in patent publication US20260169011A1, “METHODS AND COMPOSITIONS FOR PROVIDING CUSTOMIZED NUTRITIONAL SUPPLEMENTS” (Vibrant Holdings LLC, priority 2023, published 2026).
Where two headings read alike, the source gives them in different places.

How the values were obtained:
[1] = cited from earlier work
[2] = Zone Approach: nutrient zone (Zone 1-5), target nutrient zone and follow-up zone; format: in vivo, human; settings: Example 5: person, Zone Approach, CB followed for three months
Description: The second exemplary approach includes determining nutrient zones, and thus is referred to as the “Zone Approach.” According to some embodiments, the nutrient reference range for individuals can be divided into a number of zones, each indicating a nutrient wellness level. […] In some embodiments, for a given nutrient, each zone is associated with a specific multiplication factor, which can be used to determine the appropriate dosage for the CB. A few exemplary methods following this Zone Approach are further described hereinafter. […] Based on the assessment results, the current zone for each nutrient is determined at step 420a. In some embodiments, the genetic predispositions and cellular levels may influence the determination of the overall zone for a nutrient. […] This adjustment accounts for the impact of genetic polymorphisms and suboptimal cellular levels, each reducing the nutrient's zone by one or more zones. Therefore, this approach takes one or more of cellular and serum nutrient levels, along with their nutrient genetic profile into consideration to determine a given nutrient's overall zone. In the next, the Target Nutrient Zone (TNZ) to which the individual's each nutrient level is to be optimized is determined at step 430. […] In some embodiments, the determined TNZ is used to determine the multiplication factor used to adjust the starting dosage at step 440a, resulting in the CB dosage for each nutrient. In various embodiments, the multiplication factor is a fixed constant value, previously determined for a nutrient when moving from a first zone to a second zone. […] At step 450a, the CB with the determined nutrient dosages is administered to the individual for a predefined period. In some embodiments, a follow-up test is periodically conducted at step 460, to monitor the progress towards the target nutrient levels during the predefined period, for example, to check whether a target zone is reached or not for a given nutrient. In some embodiments, based on the results from the follow-up tests, it is further determined whether the dosage of the CB for a nutrient requires adjustment. If the adjustment is necessary, appropriate modification is made to the CB, for example, by increasing the TNZ to increase the nutrient levels. The modified CB is administered to the individual, and a reassessment is conducted again. In some embodiments, the personalized dosage of the nutritional supplement in the CB is modified as above after the at least one, two, three, four, five, six, seven, eight, nine, ten, or more repeats.

[3] = Extracellular (serum) nutrient levels by mass spectrometry (LC-MS, GC-MS, ICP-MS); settings: Level: Serum; person; before customized blend
Description: (§1) In some embodiments, the detection method assesses nutrients both in extracellular plasma and intracellular in RBC and WBC. In some embodiments, the detection method is mass spectroscopy-based. The extracellular and intracellular nutrient levels provide a comprehensive analysis of a subject's nutrient status, reflecting not only the intake levels but also the absorption levels into the cells.
(§2) In some aspects, the extracellular nutrient levels provide a snapshot of the status of nutrient baseline levels at a given time. It is a reflection of a person's diet over a narrow period of time. In contrast, the intracellular levels of nutrients provide information on the absorbed levels of nutrients, thus accounting for factors such as aging, lifestyle, chronic illness, medication, etc. that could interfere with absorption and can change the functional nutritional levels.
(§3) In some embodiments, the detection method is mass spectrometry. In some embodiments, the detection method is Liquid chromatography-mass spectrometry (LC-MS), Gas chromatography-mass spectrometry (GC-MS), or Inductively coupled plasma-mass-spectrometry (ICP-MS). In some embodiments, the detection method is Liquid chromatography-mass spectrometry (LC-MS). In some embodiments, the detection method is Gas chromatography-mass spectrometry (GC-MS). In some embodiments, the detection method is Inductively coupled plasma-mass-spectrometry (ICP-MS).
(§4) In some embodiments, the method provided herein evaluates nutrient levels, both in extracellular serum and inside (intracellular) red blood cells (RBC) and/or white blood cells (WBC). The extracellular nutrient levels provide a snapshot of the status of nutrient baseline levels at a given time. These extracellular nutrient levels are a reflection of a person's diet over a narrow period of time. In contrast, RBCs have a normal lifespan of 120 days, and thus intracellular assessments for nutrients in RBCs can provide information on nutrients over longer periods. Additionally, the intracellular levels of nutrients provide information on the absorbed levels of nutrients, thus accounting for factors such as, but not limited to, aging, lifestyle, chronic illness, and medication, that can interfere with absorption and can change the functional nutritional levels. Moreover, actual nutrient utilization occurs inside the cell owing to cellular metabolic processes. At times, nutrients could be present in serum, but poor cellular uptake may result in cells being devoid of these nutrients, thus giving rise to nutrient deficiencies owing to affected cellular activities. […] As a result, it is important to assess nutrients intracellularly in addition to extracellularly. Thus, the intracellular assessment provides information on cellular uptake and utilization of nutrients at the most fundamental level, enabling understanding of the root cause of nutrient deficiencies.
(§5) The subject individual fills out the health questionnaire (PHQ) which helps establishes factors such as symptoms, complications, comorbidities, and ongoing medications. The subject's blood is drawn and the extracellular serum and intracellular blood cells are tested for nutritional deficiencies via mass spectroscopy (e.g., Liquid chromatography-mass spectrometry (LC-MS), Gas chromatography-mass spectrometry (GC-MS), or Inductively coupled plasma-mass-spectrometry (ICP-MS)).

[4] = NutriPro test: serum, RBC and WBC nutrient values before and after ATB / customized blend; format: in vivo, human
Description: The method for providing a nutritional supplement for a subject as disclosed herein is based on a comprehensive panel that assesses intracellular and extracellular levels of at least or up to 41 nutrients. […] Blood analysis using the method disclosed herein tests for nutrient levels in serum, red blood cells (RBCs), and white blood cells (WBCs). Additional genetic testing can assess patients' predispositions toward nutrient deficiencies. Based on the blood and genetic analysis results, a subsequent supplementation diet comprising supplements and food sources can be designed and implemented. The subject can be a human subject.
In some embodiments, the detection method is mass spectrometry.
The ‘NutriPro’ test is used to assess serum (extracellular), RBC, and WBC (intracellular) nutrient values along with genetic testing for any predispositions with could be affecting nutrient values in the body. If required, additional tests such as the gut zoomer, cardiovascular health, thyroid test, kidney function test, liver function test, etc, are carried out. FIG. 1 provides a schematic diagram of the process of the NutriPro test from the individual subject to the creation of customized nutritional blends.
The ATB is given to the individual for nutritional supplementation, and blood testing for nutrients in serum, RBC, and WBC is carried out after 3 or 6 months.
The assessed change is called the VAF.
After testing, the individual takes the ATB or the customized blend for the amount of time indicated.

[5] = Vibrant Absorption Factor (VAF): difference of post- and pre-supplementation nutrient values divided by ATB dosage; settings: person one; serum
Description: Improvement in nutrition can be determined by comparing the nutrient values in serum, RBC, and WBCs post-nutritional supplementation to the nutrient values in serum, RBC, and WBCs pre-nutritional supplementation. Based on the improvement, the change in the nutrient levels can be attributed to the per milligram dosage of the supplemented nutrients. The assessed nutritional change is the “Vibrant Absorption factor (VAF (see Equation (1) below). The VAF can be used to determine the subject's utilization of the supplemented nutrients, as determined by the difference in extracellular and intracellular nutrient values before and after supplementation. Based on the subject's utility or absorption of the nutrients, the dosage amount of the nutrient needed to be supplemented or increased to effect change of the subject's nutrient values into the optimum nutrient zone can be assessed. In various embodiments, the VAF is determined by administering a pre-determined formulation, referred to herein as the Absorption Testing Blend.
Next, the ATB is administered to the individual for a predefined period at step 320a, after which nutrient levels and the genetic nutrient profile are re-evaluated, to obtain the post-supplementation biomarker values at step 330.
This includes determining the VAF based on the difference between post- and pre-supplementation biomarker values, which is divided by the ATB dosage.
The assessed change is called the VAF. The VAF is used to understand how the individual's body is utilizing these nutrients, depending on the difference in extracellular and intracellular nutrient values before and after supplementation. Based on the body's utility or absorption of the nutrients, the amount of nutrients needed to be supplemented to alter the individual's nutrient values into the optimum nutrient zone is understood. The VAF calculations help in determining the appropriate dosages of nutrients required in the ‘customized blend.’

[6] = clinical; settings: female, human, in vivo
Description: as §1, §2, §3, §4, §5

NC(=O)CC[C@H](N)C(=O)O [L-glutamine, L-Glutamine]
UTL ([1]; Table 18, person one): 14000 mg/day
UTL ([1]; Table 20, person three): 14000 mg/day
UTL ([1]; upper tolerable limit): 14000 mg/day
change of nutrient level at follow-up testing [2]: marginal increase
nutrient zone at follow-up testing [2]: Zone 2
Actual Nutrient Value (ANV) [3]: 302 nmol/mL
Follow-up Biomarker level ([4]; male, human, in vivo): 697 nmol/mL
Post-test biomarker level ([4]; male, human, in vivo): 312 nmol/mL
Pre-test biomarker level ([4]; person one, serum, before ATB): 295.3 nmol/mL
Follow-up Nutrient Level ([4]; person three, serum, after customized blend): 677 nmol/mL
Actual Nutrient Value (ANV) ([4]; person three, serum, before customized blend): 290 nmol/mL
VAF [5]: 3.34
concentration at 3 months [6]: 371 µM
